In patent US11324725B2, “Compositions and methods for the inhibition of pruritus” (The United States of America, as represented by the …, priority 2017, dated 2022):
“Also recorded” adds a separate entry of the source.

Molecular target: T1, hNpr1 (Homo sapiens, UniProt P16066)
T1 sequence (P16066 33-1061): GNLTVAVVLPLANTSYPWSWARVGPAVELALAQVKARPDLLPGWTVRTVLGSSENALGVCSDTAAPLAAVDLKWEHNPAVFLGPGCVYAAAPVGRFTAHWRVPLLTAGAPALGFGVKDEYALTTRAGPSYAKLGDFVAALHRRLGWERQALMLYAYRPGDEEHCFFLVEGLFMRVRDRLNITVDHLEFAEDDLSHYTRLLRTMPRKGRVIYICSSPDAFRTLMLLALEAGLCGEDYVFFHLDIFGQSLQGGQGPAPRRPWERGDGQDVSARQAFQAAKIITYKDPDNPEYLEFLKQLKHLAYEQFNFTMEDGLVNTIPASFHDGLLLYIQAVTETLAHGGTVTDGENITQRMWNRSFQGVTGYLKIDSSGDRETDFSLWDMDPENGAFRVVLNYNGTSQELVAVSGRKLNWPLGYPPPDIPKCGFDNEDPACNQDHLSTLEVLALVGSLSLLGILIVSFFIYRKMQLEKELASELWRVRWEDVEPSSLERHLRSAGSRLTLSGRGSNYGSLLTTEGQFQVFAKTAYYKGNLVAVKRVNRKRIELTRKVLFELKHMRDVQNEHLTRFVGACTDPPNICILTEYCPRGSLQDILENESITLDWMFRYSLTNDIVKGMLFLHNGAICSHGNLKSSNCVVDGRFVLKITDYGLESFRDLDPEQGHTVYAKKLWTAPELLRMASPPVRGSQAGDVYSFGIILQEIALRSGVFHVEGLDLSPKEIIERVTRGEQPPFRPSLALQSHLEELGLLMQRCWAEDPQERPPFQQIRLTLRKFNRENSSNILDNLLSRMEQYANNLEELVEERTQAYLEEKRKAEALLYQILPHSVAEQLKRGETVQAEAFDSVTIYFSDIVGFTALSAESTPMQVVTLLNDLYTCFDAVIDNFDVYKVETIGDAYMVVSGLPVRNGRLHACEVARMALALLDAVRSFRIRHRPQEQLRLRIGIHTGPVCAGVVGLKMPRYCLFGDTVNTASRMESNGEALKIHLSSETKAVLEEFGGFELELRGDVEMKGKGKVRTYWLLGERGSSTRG
Experiment: GloSensor assay in 96-well format, HEK-hNpr1-cGMP-sensor cells
Type: cell-based
Design: Reversibility of hNpr1 inhibition after washing: dose or concentration left out as unconfirmed
Settings: for Imax [%] (mean ± SEM), GloSensor 96-well format / IC50: 60 pM hNppa 5 minutes after compound; for IC50: read-out: IC50 [μM] (mean ± SEM), GloSensor 96-well format; for Ki: calculated with Cheng-Prusoff equation from Table 3, read-out: Ki hNpr1 GloSensor™ [μM] (mean ± SEM); for Basal (unstimulated) hNpr1 activity: HEK-hNpr1-cGMP-sensor cells, no agonist; for Effect on hNppa concentration-response at fixed antagonist concentration: 5 μM antagonist, increasing hNppa, GloSensor and membrane cyclase assays (FIGS. 5B-C)
Procedure: Before the measurement (24 hours in advance), 3×10^4 cells were seeded into white 96-well plates (PerkinElmer, Waltham, Mass.), coated with 0.1% poly(D-lysine), and assays conducted as recommended by the manufacturer (Promega). Medium was aspirated and cells were loaded for two hours at room temperature with 2% GoSensor™ reagent diluted in CO2-independent media (ThermoFisher) supplemented with 2 mM L-glutamine and 10% FBS (assay medium). Luminescence was measured on a BioTek Synergy™ NEO (Winooski, Vt.) plate reader at room temperature. After a baseline measurement of 3-5 minutes, assay medium as a control or assay medium with agonist was manually added, and luminescence was measured for 30 minutes at ˜ 1/60 Hz. For compounds tested for Npr1 and Npr2 inhibition, the compounds were added after baseline measurements, and luminescence was read for 5 minutes before addition of agonist. Luminescence was then normalized to baseline measurements and plotted against the time. Ligand-induced changes of cGMP production were quantified by determining the area under the curve. To determine efficacy and potency of agonists, ligand-induced changes were normalized to medium only addition and plotted against the ligand concentration. […] To quantify […] of compounds, compound-induced changes of agonist-induced cGMP production were normalized to vehicle controls, plotted against compound concentration, and fit with a four-parameter logistic regression. Effects of A-71915 on basal mNpr1 activity were fitted with a bell-shaped regression (equation indicated below).
Additional screens of the fifteen candidates corroborated hNpr1 inhibition. In particular, HEK-hNpr1-cGMP-sensor cells were seeded in 96-wells and stimulated with 60 pM hNppa 5 minutes after addition of candidate compounds or A-71915 and luminescence was measured for 30 minutes. Inhibitors were titrated to calculate apparent potency (IC50) and efficacy (Imax) of inhibition of hNppa-induced cGMP production.

Row | Structure (SMILES) | IC50 [µM] | Ki [µM] | Imax [%] (mean ± SEM), GloSensor 96-well format | Basal (unstimulated) hNpr1 activity | Effect on hNppa concentration-response at fixed antagonist concentration | Reversibility of hNpr1 inhibition after washing (5 minutes compound, 5-minute washing step, then hNppa)
1 | CN(Cc1ccccc1)C(=O)c1cn2ccnc(-c3ccccc3)c2n1 [JS-14, N-benzyl-N-methyl-8-phenylimidazo[1,2-a]pyrazine-2-carboxamide] | 3.1 ± 1.1 | 0.5 ± 0.179 | – | – | – | –
2 | COc1ccc(C2(C(=O)N3CCC4(CC3)c3nccn3-c3ccccc3CN4C)CC2)cc1 [JS-12, (1-(4-methoxyphenyl)cyclopropyl)(5-methyl-5,6-dihydrospiro[benzo[f]imidazo[1,2-a][1,4]diazepine-4,4′-piperidin]-1′-yl)methanone] | 1.3 ± 0.002 | 0.21 ± 0.0002 | −96.0 ± 1.3 | – | – | –
3 | Cc1nn2c(c1-c1ccccc1Oc1ccccc1)N(C(=O)Cc1ccc3c(c1)OCO3)CCC2 [JS-10, 2-(benzo[d][1,3]dioxol-5-yl)-1-(2-methyl-3-(2-phenoxyphenyl)-6,7-dihydropyrazolo[1,5-a]pyrimidin-4(5H)-yl)ethan-1-one] | 6.7 ± 6.7 | 1.07 ± 1.08 | −98.3 ± 1.7 | – | – | –
4 | O=C(NCc1cccnc1)c1cnc2[nH]nc(-c3ccccc3)c2n1 [JS-7, 3-phenyl-N-(pyridin-3-ylmethyl)-1H-pyrazolo[3,4-b]pyrazine-5-carboxamide] | 1.2 ± 0.5 | 0.19 ± 0.085 | – | – | – | –
5 | Cc1cc(CNC(=O)c2ccc3c(c2)n(CC2CC2)c(=O)n3C2CCCCC2)on1 [JS-11, 1-cyclohexyl-3-(cyclopropylmethyl)-N-((3-methylisoxazol-5-yl)methyl)-2-oxo-2,3-dihydro-1H-benzo[d]imidazole-5-carboxamide] | 1.9 ± 0.8 | 0.3 ± 0.134 | −96.3 ± 1.3 | dose dependently inhibited | – | –
6 | Cc1noc(C)c1-c1cc(-c2ccccc2Oc2ccccc2)cn2cncc12 [JS-5, 3,5-dimethyl-4-(6-(2-phenoxyphenyl)imidazo[1,5-a]pyridin-8-yl)isoxazole] | 7.4 ± 0.3 | 1.18 ± 0.048 | −99.9 ± 0.1 | dose dependently inhibited | reduced maximal responses even at extremely high hNppa concentrations | –
7 | CCC(CC)c1cc([C@H]2CN3CC[C@H]2C[C@@H]3CNS(=O)(=O)c2cccs2)nc(-c2ccncc2)n1 [JS-3, N-(((2R,4S,5R)-5-(6-(pentan-3-yl)-2-(pyridin-4-yl)pyrimidin-4-yl)quinuclidin-2-yl)methyl)thiophene-2-sulfonamide] | 3.1 ± 0.6 | 0.5 ± 0.102 | −99.4 ± 0.6 | – | – | –
8 | Cc1nn2c(c1-c1ccccc1OCc1ccccc1)N(C(=O)Cc1ccc3c(c1)OCO3)CCC2 [JS-8, 2-(benzo[d][1,3]dioxol-5-yl)-1-(3-(2-(benzyloxy)phenyl)-2-methyl-6,7-dihydropyrazolo[1,5-a]pyrimidin-4(5H)-yl)ethan-1-one] | 1.2 ± 0.1 | 0.2 ± 0.013 | −98.8 ± 0.7 | dose dependently inhibited | reduced maximal responses even at extremely high hNppa concentrations | a single washing step was sufficient to completely recover hNpr1 activity; also recorded: reversible

More lines, main results first:

Row | IC50 [µM] | Ki [µM] | Structure (SMILES) | Imax [%] (mean ± SEM), GloSensor 96-well format | Basal (unstimulated) hNpr1 activity | Effect on hNppa concentration-response at fixed antagonist concentration | Reversibility of hNpr1 inhibition after washing (5 minutes compound, 5-minute washing step, then hNppa)
9 | 1.9 ± 0.1 | 0.31 ± 0.023 | COc1ccccc1-c1n[nH]c2ncc(C(=O)NCc3cccnc3)nc12 [JS-6, 3-(2-methoxyphenyl)-N-(pyridin-3-ylmethyl)-1H-pyrazolo[3,4-b]pyrazine-5-carboxamide] | −94.2 ± 5.3 | – | – | –
10 | 1.1 ± 0.1 | 0.18 ± 0.011 | N#Cc1ccccc1CN1CCCC(C(=O)NCc2ccccc2)CCNC(=O)CC1 (stereo not shown) [JS-13, N-benzyl-1-(2-cyanobenzyl)-4-oxo-1,5-diazacycloundecane-8-carboxamide] | −96.1 ± 0.4 | – | – | –
11 | 1.1 ± 0.01 | 0.18 ± 0.002 | COc1cc(CN2CCC(C)(NC(C)=O)CC2)cc(-c2ccncc2)c1 [JS-4, N-(1-(3-methoxy-5-(pyridin-4-yl)benzyl)-4-methylpiperidin-4-yl)acetamide] | −95.5 ± 1.2 | – | – | –
12 | 3.1 ± 1.4 | 0.49 ± 0.215 | Cc1nn2c(c1-c1ccccc1OCc1ccccc1)N(C(=O)Cc1ccccn1)CCC2 [JS-9, 1-(3-(2-(benzyloxy)phenyl)-2-methyl-6,7-dihydropyrazolo[1,5-a]pyrimidin-4(5H)-yl)-2-(pyridin-2-yl)ethan-1-one] | −93.4 ± 6.4 | – | – | –
